Four compounds from ChEMBL document CHEMBL4354798, “Synthetic Approaches to the New Drugs Approved During 2017” (J Med Chem, 2019) can be followed below.

Data set [1] in a line: Half life in human Plasma. Format: ADME, cell-free.
Data set [2] is described as follows: Antitumour activity in human FLT3 positive AML patient assessed as increase in survival time at 50 mg, po bid for 14 days co-treated with CTX relative to control. In kind it is functional.
Data set [3] is described as follows: Half life in human infected with HIV 20 to 40 mg, po for 7 days. In kind it is ADME, organism-based. The settings on record: in vivo.

Turning to `Cc1cccc(C)c1N(CC(=O)Nc1ccc(-c2ncon2)cc1)C(=O)C1CCS(=O)(=O)CC1` [AMENAMEVIR], the half-life in data set [1] was 8 h.

Regarding `CO[C@@H]1[C@H](N(C)C(=O)c2ccccc2)C[C@H]2O[C@]1(C)n1c3ccccc3c3c4c(c5c6ccccc6n2c5c31)C(=O)NC4` [MIDOSTAURIN], the Activity in data set [2] is 80%.

Take `N#Cc1cc(Cl)cc(Oc2c(Br)ccc(CC(=O)Nc3ccc(S(N)(=O)=O)cc3Cl)c2F)c1` [DEPULFAVIRINE]: the half-life in data set [3] was above 120 h.

`CCC(=O)[N-]S(=O)(=O)c1ccc(NC(=O)Cc2ccc(Br)c(Oc3cc(Cl)cc(C#N)c3)c2F)c(Cl)c1.[Na+]` [ELSULFAVIRINE SODIUM]: the half-life in data set [3] was 2 h.

The half-life is the time in which the quantity being followed falls by half. Read a low half-life as fast loss.
